Laboratory results published in US20080226596A1, “Therapeutic compositions and methods useful in treating hepatitis” (priority 2006, published 2008).

Columns and labels:
NB4 cells [1] = assay: NB4 differentiation, NBT reduction; assay type: cell-based, human
Description: Differentiation of AML cell lines was assessed by their ability to produce superoxide as measured by reduction of NBT to formazan and by analysis of expression of CD11b surface marker by flow cytometry. For NBT reduction, each cell suspension was mixed with an equal volume of solution containing 1 mg/ml of NBT (Sigma) and 2.5 µg/ml of TPA for 30 minutes at 37° C. After incubation, cells containing the purple formazan deposits and cells devoid of NBT-reducing activity (white cells) in each sample were determined by counting 200 cells under microscope. Data is expressed as a percentage based on the following ratio: purple cells/purple+white cells. For analysis of cell surface antigens, cells were exposed to phycoerythrin (PE)-conjugated murine anti-human CD11b (DAKO Corp., Carpinteria, Calif.). Analysis of fluorescence was performed on a FACScan flow cytometer (Beckton Dickinson, Mountain View, Calif.).

LoVo cells = assay: LoVo colon cancer cell growth, MTT assay; assay type: cell-based, human; settings: 100 μg/ml, day 6
Description: (§1) NIH3T3 (Yi, et al., Blood 85, 87 (1995)), WM9 (Forsberg, et al., Proc. Nat. Acad Sci. USA 90, 393 (1993)), DU145 (Mickey, et al., Cancer Res. 37, 4049 (1977)), LoVo (Drewinko, et al., Cancer Res. 36, 467 (1976)), HEY (Buick, et al., Cancer Res. 45, 3668 (1985)), U251 (Yoshida, et al., Cancer 50, 410 (1982)), A549 (Giard, et al., J. Natl. Cancer Inst. 51, 1417 (1973)) and SK-N-SH (Helson, et al., Cancer Res. 35, 2594 (1975)) cell lines have been described and were cultured in RPMI 1640 supplemented with 10% fetal calf serum (FCS). For measurement of sodium stibogluconate effects on cell growth in vitro, cells were cultured in the absence (−) or presence (+) of various amounts of sodium stibogluconate for 6 days with viable cells quantified by MTT assays (Mosmann, J. Immunol. Methods 65, 55 (1983)). Percentages of growth inhibition by sodium stibogluconate were calculated (.+−.x

[2] = system: Renca tumor-infiltrating immune cells; assay: Renca tumor-infiltrating immune cells, immunohistochemistry; parameters: species or system Balb/c mice; settings: mouse, in vivo
Description: Major internal organs and Renca tumors harvested from mice were fixed in 10% formalin or snap frozen in liquid nitrogen. H & E-stained tissue sections of the fixed samples were prepared and evaluated by microscopy as described previously (Yi, T., M. K. Pathak, D. J. Lindner, M. E. Ketterer, C. Farver, and E. C. Borden. 2002. Anticancer activity of sodium stibogluconate in synergy with IFNs. J Immunol 169:5978). Preparation of frozen tissue sections and immunohistochemistry were performed following established procedures (Joliat, M. J., P. A. Lang, B. L. Lyons, L. Burzenski, M. A. Lynes, T. Yi, J. P. Sundberg, and L. D. Shultz. 2002. Absence of CD5 dramatically reduces progression of pulmonary inflammatory lesions in SHP-1 protein-tyrosine phosphatase-deficient ‘viable motheaten’ mice. J Autoimmun 18:105). The antibodies used for immunohistochemistry were anti-CD4 (rat mAb, clone GK1.5, BD Biosciences, Franklin Lakes, N.J.), anti-CD8 (rat mAb, clone 53-6.7.5, BD Biosciences, Franklin Lakes, N.J.), anti-F4/80 (rat mAb, clone A3-1, Serotec, Oxford, UK) and anti-Asialo GM1 (rabbit polyclonal, Cedarlane, Hornby, Canada). […] Tissue sections of 2 mice/group were evaluated. The number of immune cells was semi-quantified based on the following scheme: […], 0-1 positive cells/40×field; +, 2-5 positive cells/40×field; ++, 6-10 positive cells/40×field, etc.

NB4 cells [3] = assay: NB4 Annexin V/propidium iodide assay; assay type: cell-based, human; settings: 250 μg/ml, 6 days
Description: Annexin V staining of exposed membrane phospholipid phosphatidylserine (PS) was done using the Annexin V assay kit (Pharmingen, San Diego, Calif.). […] Cells were then washed in PBS twice and stained in binding buffer (10 mM Hepes, pH 7.4; 140 mM NaCl; 2.5 mM CaCl2) containing Annexin V-FITC and propidium iodide for 15 min. The reaction was stopped by adding 10 volumes of binding buffer and analyzed by FACS (Becton Dickinson Facsvantage).

HEY cells = assay: HEY ovarian cancer cell growth, MTT assay; assay type: cell-based, human; settings: 100 μg/ml, day 6
Description: as §1

U266 cells = assay: U266 multiple myeloma cell growth, MTT assay; assay type: cell-based, human; settings: day six cultures
Description: For cell proliferation assays, cells were grown in 10% FCS culture medium containing various amounts of IFNs and/or sodium stibogluconate in 96 well plates and cultured at 37° C. for 3 or 6 days as indicated. The numbers of viable cells in proliferation assays were determined by MTT assays as described in Phatak et al., J. Immunol. 167, 3391 (2001).

[4] = system: Stat1 tyrosine phosphorylation; assay: IFN-alpha-induced Stat1 tyrosine phosphorylation in human cancer cell lines; assay type: cell-based
Description: Cell lysates were prepared by lysing cells in cold lysis buffer for 30 min and cleared by centrifuging at 14,000 rpm at 4° C. for 15 min. For SDS-PAGE, cell lysates were mixed with equal volume of 2×SDS-PAGE sample buffer, heated at 90° C. for 5 min and separated in 10% SDS-PAGE gels. Cellular proteins in SDS-PAGE gels were transferred to nitrocellulose membrane (Schleicher & Schuell, Keene, N.H.), blocked in 5% milk, probed with antibodies and detected by using an enhanced chemiluminescence kit (ECL, Amersham, Arlington Heights, Ill.).

`O.O.O.O.O.O.O.O.O.O=C([O-])[C@@H]1[O][Sb]2([O-])([O][Sb]34([OH])[O][C@H]([C@H](O)CO)[C@H]([O]3)[C@H](C(=O)[O-])[O]4)[O][C@H]([C@H](O)CO)[C@@H]1[O]2.[Na+].[Na+].[Na+]` [sodium stibogluconate] was tested, and the “NB4 differentiation induction” value (NB4 cells [1]; 10 to 400 μg/ml, day 3 or day 6) was “differentiation induction activity at all of the dosages”, the “reversal of NB4 differentiation after drug removal” value (NB4 cells [1]; 6 days with drug (10 or 100 μg/ml), washed, 6 days without) was “not reversed” and the “killing of LoVo cells” value (LoVo cells) was “near-complete cell killing”. The “numbers of tumor-infiltrating T cells or NK cells” value [2] was “little effect”, the “Annexin V staining of NB4 cells” value (NB4 cells [3]) was “stained positive by Annexin V” and the “killing of HEY cells” value (HEY cells) was “near-complete cell killing”. The “growth inhibition of U266 cells” value (U266 cells) was “substantial growth inhibition activity”, the “Stat1 tyrosine phosphorylation by drug alone” value ([4]; DR cells, absence of IFN-alpha) was “failed to induce Stat1 tyrosine phosphorylation” and the “IFN-alpha-induced Stat1 tyrosine phosphorylation” value ([4]; DU145 cells, 5 hours post-stimulation) was “Enhanced”. For the same compound, the “IFN-alpha-induced Stat1 tyrosine phosphorylation” value ([4]; WM9 cells, 5 hours post-stimulation) was “Enhanced”, the “IFN-alpha-induced Stat1 tyrosine phosphorylation” value ([4]; WM35 cells) was “failed to enhance” and the “IFN-alpha-induced Stat1 tyrosine phosphorylation” value ([4]; WiT49-N1 cells) was “failed to enhance”.
